Where a name gives a salt, the structure may show the parent alone.
What was measured:
P-388 leukemia cells = assay: Antitumor activity: P-388 leukemia cells inoculated intraperitoneally, drug administered intravenously, BDF1 mice; type: in vivo; conditions: BDF1 mice, P-388 i.p.; for response vs control in vivo at 80 mg/kg: dose f: 80 mg/kg × 3, i.v. on days 1, 5 and 9; for response vs control in vivo at 60 mg/kg: dose e: 60 mg/kg × 3, i.v. on days 1, 5 and 9; for response vs control in vivo at 10 mg/kg: dose a: 10 mg/kg × 3, i.v. on days 1, 5 and 9
Experimental: Into BDF1 mice were inoculated intraperitoneally P-388 leukemia cells at a rate of 1×10^6 cells/mouse, and each drug to be tested was administered intravenously on the first, fifth and ninth days after the inoculation. […] The drugs were as follows solutions prepared by adding physiological saline to each of compound Nos. 8, 9, 10, 11, 17, 34, 42, 59, 80 and 134; suspensions prepared by dispersing each of compound Nos. 41, 78, 98, 100, 130, 191, 212, 213, 215, 227 and 230 to 232 and a small amount of sodium carboxymethyl cellulose (Na.CMC) in physiological saline, […]

[1] = Acute toxicity, intravenous (once), ddY mice; type: in vivo; conditions: mouse, in vivo, iv, formulated per Preparation Example
Text: In Table 7 are shown acute toxicity values (LD50, mg/kg) in ddY mice in the case of intravenously administering (once) each of the compounds of this invention in the form of preparations shown in the Preparation Examples shown in Table 7.

[2] = Mus musculus, P388, iv, dose c: 40 mg/kg × 3, i.v. on days 1, 5 and 9, read-out: T/C (%) of MST
[3] = Mus musculus, P388, iv, read-out: T/C (%) of MST
[4] = Mus musculus, P388, iv, dose b: 20 mg/kg × 3, i.v. on days 1, 5 and 9, read-out: T/C (%) of MST
[5] = dose b: 20 mg/kg × 3, i.v. on days 1, 5 and 9
[6] = dose c: 40 mg/kg × 3, i.v. on days 1, 5 and 9

Row | Structure (SMILES) | response vs control in vivo at 40 mg/kg (P-388 leukemia cells; [2]) | response vs control in vivo at 80 mg/kg (P-388 leukemia cells; [3]) | LD50 [1] | further results
1 | CO[C@H]1[C@@H](O)[C@@H](C)O[C@H](O[C@H]2[C@H](Oc3cccc4c(OC(=O)c5ccc(C#N)cc5)c5c(=O)oc6ccc(C)c7c(=O)oc(c34)c5c67)O[C@H](C)[C@@H]3OC(C)(C)O[C@@H]32)[C@@H]1O [Compound No. 183] | 153% | 192% | ≥ 80 mg/kg | –
2 | COC1C(O)C(C)OC(OC2C(Oc3cccc4c(OC(=O)CCCCCNC(=O)C(F)(F)F)c5c(=O)oc6ccc(C)c7c(=O)oc(c34)c5c67)OC(C)C3OC(c4ccc(F)cc4)OC32)C1O (stereo not drawn) [compound 97] | – | – | ≥ 30 mg/kg | response vs control in vivo at 20 mg/kg (P-388 leukemia cells; [4]): 156%
3 | COC1C(O)C(C)OC(OC2C(Oc3cccc4c(OC(=O)CCNC=O)c5c(=O)oc6ccc(C)c7c(=O)oc(c34)c5c67)OC(C)C3OC(c4ccccc4)OC32)C1O (stereo not drawn) [Compound No. 45] | 220% | – | – | T/C (%) of MST (P-388 leukemia cells; [5]): 164%
4 | COC1C(O)C(C)OC(OC2C(Oc3cccc4c(OC(=O)CCCCCNC(=O)OCc5ccccc5)c5c(=O)oc6ccc(C)c7c(=O)oc(c34)c5c67)OC(C)C3OC(C)(C)OC32)C1O (stereo not drawn) [Compound No. 111, 6-O-(N-Carbobenzyloxy-6-Amino-n-Hexanoyl)-3',4'-O-Isopropylidene-Chartreusin] | – | – | ≥ 100 mg/kg | response vs control in vivo at 60 mg/kg (P-388 leukemia cells; [3]): 175%
5 | COC1C(O)C(C)OC(OC2C(Oc3cccc4c(OC(=O)c5cccc(Cl)c5)c5c(=O)oc6ccc(C)c7c(=O)oc(c34)c5c67)OC(C)C3OC(C)(C)OC32)C1O (stereo not drawn) [compound 226] | 145% | – | – | –
6 | COC1C(O)C(C)OC(OC2C(Oc3cccc4c(OC(=O)CCNC(=O)C(F)(F)F)c5c(=O)oc6ccc(C)c7c(=O)oc(c34)c5c67)OC(C)C3OC4(CCCCC4)OC32)C1O (stereo not drawn) [compound 132] | 136% | 146% | ≥ 100 mg/kg | –
7 | CO[C@H]1[C@@H](O)[C@@H](C)O[C@H](O[C@H]2[C@H](Oc3cccc4c(OC(=O)c5ccc(C#N)cc5)c5c(=O)oc6ccc(C)c7c(=O)oc(c34)c5c67)O[C@H](C)[C@@H]3OC(c4ccccc4Cl)O[C@@H]32)[C@@H]1O (stereo partly drawn) [Compound No. 187] | 130% | 216% | ≥ 80 mg/kg | –
8 | COC1C(O)C(C)OC(OC2C(Oc3cccc4c(OC(=O)CCN)c5c(=O)oc6ccc(C)c7c(=O)oc(c34)c5c67)OC(C)C3OC(c4cccc(F)c4)OC32)C1O (stereo not drawn) [Compound No. 16, 6-O-(β-alanyl)-3',4'-O-(m-fluorobenzylidene)-chartreusin phosphate] | 242% | – | ≥ 40 mg/kg | response vs control in vivo at 20 mg/kg (P-388 leukemia cells; [4]): 164%
9 | COC1C(O)C(C)OC(OC2C(Oc3cccc4c(OC(=O)C5CC5)c5c(=O)oc6ccc(C)c7c(=O)oc(c34)c5c67)OC(C)C3OC(c4ccccc4)OC32)C1O (stereo not drawn) [compound 232] | – | – | ≥ 40 mg/kg | response vs control in vivo at 10 mg/kg (P-388 leukemia cells; [3]): 146%
10 | COC1C(O)C(C)OC(OC2C(Oc3cccc4c(OC(=O)C5CC5)c5c(=O)oc6ccc(C)c7c(=O)oc(c34)c5c67)OC(C)C3OC(c4ccsc4)OC32)C1O (stereo not drawn) [Compound No. 155] | 183% | – | ≥ 40 mg/kg | response vs control in vivo at 20 mg/kg (P-388 leukemia cells; [4]): 171%
11 | COC1C(O)C(C)OC(OC2C(Oc3cccc4c(OC(=O)C(Cc5c[nH]c6ccccc56)NC(=O)OCc5ccccc5)c5c(=O)oc6ccc(C)c7c(=O)oc(c34)c5c67)OC(C)C3OC(c4cccc(C(F)(F)F)c4)OC32)C1O (stereo not drawn) [compound 101] | 171% | 225% | ≥ 80 mg/kg | –
12 | COC1C(O)C(C)OC(OC2C(Oc3cccc4c(OC(=O)CCNC(C)=O)c5c(=O)oc6ccc(C)c7c(=O)oc(c34)c5c67)OC(C)C3OC(C)(C)OC32)C1O (stereo not drawn) [Compound No. 87, 6-O-(N-Acetyl-β-Alanyl)-3',4'-O-Isopropylidene-Chartreusin] | 134% | 183% | ≥ 100 mg/kg | –
13 | COC1C(O)C(C)OC(OC2C(Oc3cccc4c(OC(=O)C(C)CN)c5c(=O)oc6ccc(C)c7c(=O)oc(c34)c5c67)OC(C)C3OC(c4cccc(F)c4)OC32)C1O (stereo not drawn) [Compound No. 14] | – | – | ≥ 30 mg/kg | response vs control in vivo at 20 mg/kg (P-388 leukemia cells; [4]): 195%
14 | COc1cccc(C(=O)Oc2c3cccc(O[C@@H]4O[C@H](C)[C@@H]5OC(c6ccccc6)O[C@@H]5[C@H]4O[C@H]4O[C@H](C)[C@H](O)[C@H](OC)[C@H]4O)c3c3oc(=O)c4c(C)ccc5oc(=O)c2c3c54)c1 (stereo partly drawn) [compound 193] | – | – | ≥ 40 mg/kg | response vs control in vivo at 10 mg/kg (P-388 leukemia cells; [3]): 162%
15 | COC1C(O)C(C)OC(OC2C(Oc3cccc4c(OC(=O)CCN5CCCC5)c5c(=O)oc6ccc(C)c7c(=O)oc(c34)c5c67)OC(C)C3OC(c4ccccc4)OC32)C1O (stereo not drawn) [Compound No. 9] | 292% | – | ≥ 40 mg/kg | response vs control in vivo at 20 mg/kg (P-388 leukemia cells; [4]): 165%
16 | COC1C(O)C(C)OC(OC2C(Oc3cccc4c(OC(=O)CCNC(=O)OCc5ccccc5)c5c(=O)oc6ccc(C)c7c(=O)oc(c34)c5c67)OC(C)C3OC(c4ccccc4)OC32)C1O (stereo not drawn) [compound 72] | – | – | ≥ 40 mg/kg | response vs control in vivo at 20 mg/kg (P-388 leukemia cells; [4]): 167%
17 | COC1C(O)C(C)OC(OC2C(Oc3cccc4c(OC(=O)CCN)c5c(=O)oc6ccc(C)c7c(=O)oc(c34)c5c67)OC(C)C3OC(C)(C)OC32)C1O (stereo not drawn) [compound 42, 6-O-(β-alanyl)-3',4'-O-isopropylidene-chartreusin hydrochloride] | – | 187% | ≥ 100 mg/kg | –
18 | COC1C(O)C(C)OC(OC2C(Oc3cccc4c(OC(=O)CCNC=O)c5c(=O)oc6ccc(C)c7c(=O)oc(c34)c5c67)OC(C)C3OC(c4ccccc4Cl)OC32)C1O (stereo not drawn) [Compound No. 58] | 162% | 216% | ≥ 80 mg/kg | –
19 | CO[C@H]1[C@@H](O)[C@@H](C)O[C@H](O[C@H]2[C@H](Oc3cccc4c(OC(=O)C5CC5)c5c(=O)oc6ccc(C)c7c(=O)oc(c34)c5c67)O[C@H](C)[C@@H]3OC(C)(C)O[C@@H]32)[C@@H]1O [Compound No. 177] | 153% | 208% | ≥ 80 mg/kg | –
20 | CO[C@H]1[C@@H](O)[C@@H](C)O[C@H](O[C@H]2[C@H](Oc3cccc4c(OC(=O)COC(=O)c5ccccc5)c5c(=O)oc6ccc(C)c7c(=O)oc(c34)c5c67)O[C@H](C)[C@@H]3OC(C)(C)O[C@@H]32)[C@@H]1O [compound 199] | – | – | ≥ 60 mg/kg | response vs control in vivo at 50 mg/kg (P-388 leukemia cells; Mus musculus, P388, iv, dose d: 50 mg/kg × 3, i.v. on days 1, 5 and 9, read-out: T/C (%) of MST): 159%
21 | COC1C(O)C(C)OC(OC2C(Oc3cccc4c(OC(=O)C5CC5)c5c(=O)oc6ccc(C)c7c(=O)oc(c34)c5c67)OC(C)C3OC(CCc4ccccc4)OC32)C1O (stereo not drawn) [compound 233] | – | – | ≥ 60 mg/kg | response vs control in vivo at 60 mg/kg (P-388 leukemia cells; [3]): 165%
22 | COC1C(O)C(C)OC(OC2C(Oc3cccc4c(OC(=O)CC(C)CC(C)(C)C)c5c(=O)oc6ccc(C)c7c(=O)oc(c34)c5c67)OC(C)C3OC(c4ccccc4)OC32)C1O (stereo not drawn) [Compound No. 236, 6-O-(3,5,5-Trimethyl-n-Hexanoyl)-3',4'-O-Benzylidene-Chartreusin] | 145% | – | ≥ 80 mg/kg | –
23 | COC1C(O)C(C)OC(OC2C(Oc3cccc4c(OC(=O)CCCOCc5ccccc5)c5c(=O)oc6ccc(C)c7c(=O)oc(c34)c5c67)OC(C)C3OC(c4ccccc4)OC32)C1O (stereo not drawn) [Compound No. 165, 6-O-(4-benzyloxy-n-butyryl)-3',4'-O-Benzylidene-Chartreusin] | – | – | – | response vs control in vivo at 20 mg/kg (P-388 leukemia cells; [4]): 189%
24 | COC1C(O)C(C)OC(OC2C(Oc3cccc4c(OC(=O)CCNC(=O)C(F)(F)F)c5c(=O)oc6ccc(C)c7c(=O)oc(c34)c5c67)OC(C)C3OC(c4ccccc4)OC32)C1O (stereo not drawn) [Compound No. 21] | – | – | – | response vs control in vivo at 20 mg/kg (P-388 leukemia cells; [4]): 210%; T/C (%) of MST (P-388 leukemia cells; [6]): 229%
25 | COC1C(O)C(C)OC(OC2C(Oc3cccc4c(OC(=O)CNC(=O)OCc5ccccc5)c5c(=O)oc6ccc(C)c7c(=O)oc(c34)c5c67)OC(C)C3OC(c4ccccc4)OC32)C1O (stereo not drawn) [compound 104] | 137% | – | – | –
26 | COC1C(O)C(C)OC(OC2C(Oc3cccc4c(OC(=O)C(C)CNC(=O)C(F)(F)F)c5c(=O)oc6ccc(C)c7c(=O)oc(c34)c5c67)OC(C)C3OC(c4ccccc4)OC32)C1O (stereo not drawn) [Compound No. 44] | – | 217% | – | T/C (%) of MST (P-388 leukemia cells; [6]): 164%
27 | COC1C(O)C(C)OC(OC2C(Oc3cccc4c(OC(=O)CCNC=O)c5c(=O)oc6ccc(C)c7c(=O)oc(c34)c5c67)OC(C)C3OC(c4ccccc4)OC32)C1O (stereo not drawn) [Compound No. 20] | 248% | – | – | T/C (%) of MST (P-388 leukemia cells; [5]): 203%
28 | COC1C(O)C(C)OC(OC2C(Oc3cccc4c(OC(=O)CCNC(=O)OCc5ccccc5)c5c(=O)oc6ccc(C)c7c(=O)oc(c34)c5c67)OC(C)C3OC(c4ccccc4)OC32)C1O (stereo not drawn) [compound 103] | 146% | 203% | – | –
